Experimental data as given in ChEMBL document CHEMBL4418489, “FTO inhibitors” (2018).

Assays:
Homo sapiens = species: Homo sapiens; experiment: Selectivity index, ratio of IC50 for COMT (unknown origin) (test compound)/IC50 for FTO (unknown origin) (test compound) to IC50 for COMT (entacapone)/IC50 for FTO (entacapone)
[1] = target: Alpha-ketoglutarate-dependent dioxygenase FTO (Homo sapiens, UniProt Q9C0B1); experiment: Inhibition of FTO (unknown origin) assessed as reduction in demethylation by measuring N6-mA and A level incubated for 2 hrs by HPLC-MS/MS analysis
Alpha-ketoglutarate-dependent dioxygenase FTO, sequence (Q9C0B1 whole entry): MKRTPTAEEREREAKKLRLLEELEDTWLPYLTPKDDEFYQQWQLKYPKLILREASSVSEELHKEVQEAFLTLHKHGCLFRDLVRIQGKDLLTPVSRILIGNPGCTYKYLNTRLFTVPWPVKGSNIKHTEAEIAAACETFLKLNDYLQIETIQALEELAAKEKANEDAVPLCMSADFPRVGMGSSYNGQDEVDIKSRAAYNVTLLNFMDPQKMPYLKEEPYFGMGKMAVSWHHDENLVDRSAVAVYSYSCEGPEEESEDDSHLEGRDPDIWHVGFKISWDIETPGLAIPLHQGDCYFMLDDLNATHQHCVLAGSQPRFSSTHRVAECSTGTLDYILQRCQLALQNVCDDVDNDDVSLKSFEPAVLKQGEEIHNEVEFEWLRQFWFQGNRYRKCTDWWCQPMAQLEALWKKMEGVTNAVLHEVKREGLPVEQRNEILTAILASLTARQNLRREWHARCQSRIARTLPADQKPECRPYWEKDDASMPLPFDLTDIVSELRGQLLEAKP

| Ratio IC50 (Homo sapiens) | IC50 [1] [µM] | Compound |
| --- | --- | --- |
| 1.65 | – | N#C/C(=C\c1cc(O)c(O)c([N+](=O)[O-])c1)C(=O)N1CCC1 |
| – | 3 | CCN(CC)C(=O)/C(C#N)=C/c1cc(O)c(O)c([N+](=O)[O-])c1 [ENTACAPONE] |
